Legend:
[1] = system: enriched microglia primary cultures from apoE deficient mouse pups; experiment: LPS-stimulated nitric oxide (nitrite) secretion by enriched microglia primary cultures; assay type: cell-based; conditions: peptide dose of 2 mM, LPS 100 ng/ml
Procedure: Culture preparation and characterization: Mixed glial cell cultures were prepared from: (a) wildtype (C57B16; Jackson Laboratories) mouse pups; (b) ApoE deficient mutant mouse pups (ApoE-deficient mice), and (c) transgenic mouse pups expressing human ApoE3 but not murine ApoE (ApoE3 mice). See Xu et al., Neurobiol. Dis. 3:229 (1996) regarding the creation and characterization of the transgenic mice. Mixed glial cell cultures were prepared as has been described. See McMillian et al., Neurochem. 58:1308 (1992); Laskowitz et al., J. Neuroimmunol. 76:70 (1997). Briefly, brains were removed from 2-4 day old pups, cleaned of membranes and blood vessels, mechanically dispersed in Ca^+2-free media, and collected by centrifugation. Cells were then plated in DMEM/F12 (containing 10% fetal calf serum, 1% penicillin/streptomycin, Gibco #15070), one brain per 25 cm flask. […]
Nitrite Quantification The production of NO was assessed by measuring the accumulation of nitrite, which was quantified using a calorimetric reaction with Griess reagent (0.1% N-1-naphthylethylenediamine dihydrochloride, 1% sulfanilamide, and 2.5% H3PO4). Absorbance was measured at 570 nm by spectrophotometry. […]
Enriched microglia primary cultures were prepared from the brains of apoE deficient mouse pups as described in Example 1, above. […] Nitric oxide production was assessed as described in Example 1. […]

LDL receptor = LDL receptor (Homo sapiens, UniProt P01130); conditions: lipid-free peptide; cited from earlier work
[2] = system: thioglycollate-elicited peritoneal macrophages; experiment: [Ca2+]i in Fura-2/AM treated single macrophages, digital imaging microscopy (Example 10); assay type: cell-based, mouse; conditions: 1000-fold molar excess RAP, 10 mM NiCl2, or 1 μg/ml pertussis toxin 12 h
Procedure: (§1) Macrophage Harvesting. All experiments involving animals were first approved by the Duke Institutional Animal Care and Use Committee. Pathogen-free female C57BL/6 mice and ApoE deficient mice previously backcrossed 10 times to the C57BL/6 strain were obtained from the Jackson Laboratory (Bar Harbor, Me.). Thioglycollate-elicited peritoneal macrophages were harvested by peritoneal lavage using 10 ml of ice-cold Hanks' balanced salt solution containing 10 mM HEPES and 3.5 mM NaHCO3 (HHBSS), pH 7.4. The macrophages were pelleted by centrifugation at 4° C. at ˜800×g for 10 min and resuspended in RPMI 1640 media supplemented with 25 mM HEPES, 12.5 U/ml penicillin, 6.5 mg/ml streptomycin, and 5% fetal bovine serum.
Measurement of [Ca^2+]i in apoE and peptide treated macrophage. Changes in [Ca^2+]i levels in Fura-2/AM treated single cells were quantified using digital imaging microscopy in accordance with known techniques. Macrophages were plated on glass coverslips sitting in 35 mm Petri dishes at a density of 1.5×10^5 cells/cm^2, and allowed to adhere for 2 h in a humidified 5% CO2 incubator at 37° C. The non-adherent cells were aspirated and the monolayers were washed twice with HHBSS. 4 μM Fura-2/AM was incubated with the cells for thirty min in the dark at room temperature and [Ca^2+]i was subsequently measured using a digital imaging microscope in accordance with known techniques. […] To determine if signaling resulted from ligation of the ligand to LRP, cells were preincubated with a 1000-fold molar excess of RAP or 10 mM NiCl2, both of which inhibit ligand binding to LRP, for 5 min prior to stimulation with apoE or peptide. In experiments in which the involvement of a G protein was assessed, monolayers were incubated with 1 μg/ml pertussis toxin for 12 h at 37° C. and Ca^2+ measurements were made as stated above.

[3] = system: primary rat neuronal/glial cultures exposed to NMDA; experiment: NMDA-induced 45Ca uptake by primary neuronal-glial cultures; assay type: cell-based; conditions: 10 μM MK-801 pretreatment, 100 μM NMDA
Procedure: (§2) Primary neuronal-glial cultures were prepared from fetal Sprague-Dawley rat brains at 18 days of gestation as previously described (Pearlstein et al., 1998). Brains were harvested from 10-15 pups and dissected to separate cortex from meninges and subcortical structures using anatomical landmarks. Cortices were pooled and minced into 2 mm^3 pieces in a buffered salt solution supplemented with 20 mM HEPES buffer, pH 7.4, containing 0.25% trypsin. The tissue was incubated for 20 minutes at 37° C. in a 5% CO2/95% room air atmosphere, and washed twice with ice-cold, glutamine-free minimum essential medium (MEM; Life Technologies) containing 15 mM glucose, 5% fetal bovine serum (GIBCO), 5% horse serum (GIBCO), and 1% DNase-I (Sigma Chemical Co., St. Louis, Mo., USA). Tissue pieces were dissociated by trituration through a fire-polished 9-inch Pasteur pipette (I.D.=0.7 mm). The resultant suspension was centrifuged at 50×g for 10 min, the supernatant discarded, and the pellet resuspended in growth medium (MEM supplemented with 15 mM glucose, 5% fetal bovine serum, and 5% horse serum). The dissociated cells were plated to achieve a confluent monolayer using 4×10^5 cells per well in poly-D-lysine coated, 24-well culture plates (Falcon 3047; Becton Dickinson Co., Lincoln Park, N.J., USA). Cultures were maintained undisturbed at 37° C. in a humidified 5% CO2/95% room air atmosphere for 13-16 days prior to use.
Cellular calcium uptake from the extracellular space was assessed using ^45CaCl2 (American Radiolabeled Chemicals, St. Louis, Mo.). After washing the cultures with Mg^2+-free BSS containing 20 mM HEPES buffer, 6 μM peptide or 10 μM MK-801 was added to each well prior to and removed at the end of 100 μM NMDA exposure. ^45Ca (0.28 μCi/ml, 0.9 μCi/well) was added to each well immediately prior to NMDA exposure. The cultures were returned to the incubator and maintained at 37° C. Twenty minutes later, the exposure medium was removed and each well was washed 3 times with ice-cold Mg^2+-free BSS containing 20 mM HEPES buffer. The cells were subsequently lysed by addition of 0.2% sodium dodecyl sulfate (SDS). An aliquot from each well was added to a liquid scintillation vial containing 10 ml Cytoscint™ (ICN, Biochemical Research Product, CA) and radioactivity was determined by scintillation counting and normalized to cell count.

[4] = system: primary rat neuronal/glial cultures exposed to NMDA; experiment: NMDA-induced LDH release in primary neuronal-glial cultures; assay type: cell-based; conditions: 6 μM peptide, 100 μM NMDA
Procedure: as §2
Mature cultures (13-16 days in vitro) were washed with Mg^2+-free buffered salt solution (BSS) containing 20 mM HEPES buffer (pH7.4) and 1.8 mM CaCl2, prior to the addition of NMDA. Following NMDA exposure, cultures were maintained for 30 minutes at 37° C. in a 5% CO2/95% air atmosphere. The medium containing NMDA was then removed and replaced with MEM supplemented with 20 mM glucose. The cultures were returned to the incubator for 24 h. In all experiments, cellular damage was assessed at 24 h after exposure to NMDA by measurement of the activity of lactate dehydrogenase (LDH) released into the medium as described below. The non-competitive NMDA receptor antagonist, MK-801 (Tocris Cookson Ins., St. Louis, Mo.) at a concentration of 10 μM was used as a positive control. Preliminary dose-response studies were performed to determine the concentration of NMDA (100 μM) required to effect a near-maximal LDH release (ED90) as used in the present study.
The effect of human recombinant apoE (Panverra, Madison, Wis.) on 100 μM NMDA-induced LDH release was assessed and the dose-response curve was obtained (apoE: 0.1-10 μM final concentration). ApoE3, the most common human isoform, was added to the cultures 30 minutes prior to and removed following NMDA exposure. The effect of apoE peptide (133-149) on NMDA (100 μM or 300 μM)-induced LDH release was next assessed and the dose-response curve was obtained in a separate set of sister cultures that were simultaneously treated under one of the following conditions: (1) various doses of peptide (0.3 μM, 1 μM, 3 μM, 6 μM, 10 μM final concentration) were added to the culture immediately prior to and removed at the end of NMDA exposure; (2) no peptide, NMDA exposure; (3) no peptide, no NMDA exposure; (4) no peptide, NMDA exposure with 10 μM MK-801 for 30 minutes. The effect of a scrambled control peptide on NMDA-induced LDH release was similarly assessed.
The effect of time of administration of apoE peptide (133-149) on NMDA-induced LDH release was assessed in a separate set of sister cultures that were simultaneously treated under one of following conditions: (1) peptide was added to the culture medium 24 h prior to and removed immediately before exposure to NMDA; (2) peptide was added immediately prior to and removed at the end of the NMDA exposure; (3) peptide was added immediately following the 30 minutes NMDA exposure; (4) no peptide, NMDA exposure; (5) no peptide, no NMDA exposure. […]

[5] = system: thioglycollate-elicited peritoneal macrophages; experiment: IP3 formation in myo-[2-3H]inositol-labeled macrophages (Example 10); assay type: cell-based, mouse; conditions: pertussis toxin pretreatment
Procedure: as §1, with “serum. Cell viability was determined by the trypan blue exclusion method and was consistently greater then 95%.” for “serum.”
Measurement of IP3 in apoE treated macrophage and effect of pertussis toxin. The formation of IP3 in myo-[2-^3H]inositol-labeled macrophages under various experimental conditions was quantified in accordance with known techniques. Macrophage were plated in 6 well plates (4×10^6 cells/well) and allowed to adhere at 37° C. for 2 h in a humidified 5% CO2 incubator. Medium was aspirated from the monolayers and RPMI 1640 medium containing 0.25% BSA and myo-[2-^3H]inositol (specific activity 10-20 Ci/mmol) was added to each well. […] Radioactivity was determined by placing aliquots in a liquid scintillation counter to determine radioactivity. […] The effect on IP3 formation was measured as described above.

LDL receptor, sequence (P01130 22-860, species assumed): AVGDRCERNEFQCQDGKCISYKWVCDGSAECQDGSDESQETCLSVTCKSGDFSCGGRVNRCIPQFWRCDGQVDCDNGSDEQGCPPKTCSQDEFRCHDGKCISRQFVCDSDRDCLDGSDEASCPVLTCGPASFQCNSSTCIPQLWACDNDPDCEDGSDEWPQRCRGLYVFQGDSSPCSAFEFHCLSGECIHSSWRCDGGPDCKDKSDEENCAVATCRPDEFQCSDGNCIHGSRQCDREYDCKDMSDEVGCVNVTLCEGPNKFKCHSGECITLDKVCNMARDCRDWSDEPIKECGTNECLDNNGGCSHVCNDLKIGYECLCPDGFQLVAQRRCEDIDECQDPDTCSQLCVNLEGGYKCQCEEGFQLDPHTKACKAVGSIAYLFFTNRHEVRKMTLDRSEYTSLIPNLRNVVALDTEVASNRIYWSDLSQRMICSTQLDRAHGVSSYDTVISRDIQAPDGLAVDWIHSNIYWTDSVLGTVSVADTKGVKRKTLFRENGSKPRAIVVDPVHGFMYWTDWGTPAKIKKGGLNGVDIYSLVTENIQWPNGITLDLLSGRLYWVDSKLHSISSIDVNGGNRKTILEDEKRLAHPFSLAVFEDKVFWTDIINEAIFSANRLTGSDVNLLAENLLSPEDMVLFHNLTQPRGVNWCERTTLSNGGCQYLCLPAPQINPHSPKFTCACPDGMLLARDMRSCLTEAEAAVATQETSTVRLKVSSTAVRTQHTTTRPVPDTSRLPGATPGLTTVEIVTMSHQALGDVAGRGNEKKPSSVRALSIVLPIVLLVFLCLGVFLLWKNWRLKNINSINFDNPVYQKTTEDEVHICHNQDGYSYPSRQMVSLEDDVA

LRKLRKRLL (fragment of ApoE containing LDL receptor binding site) [SEQ ID NO:2, 9-mer monomer, ApoE positions 141-149, used as control]
nitric oxide secretion by activated microglia [1]: did not result in any apparent decrease in nitric oxide secretion

141-155 monomer: lipid-free synthetic peptide comprising residues 141-155 of ApoE (Dyer et al.) (LRKLRKRLLRDADDL; UniProt P02649 159-173, looked up, fragment)
LDL receptor binding activity (LDL receptor): No binding activity was observed

[Cl][Ni][Cl] [Ni^+2, NiCl2, reference compound]
effect of preincubation on apoE-induced [Ca2+]i increase [2]: markedly attenuated the [Ca^2+]i increases

C[C@]12N[C@H](Cc3ccccc31)c1ccccc12 [MK-801, reference compound]
NMDA-induced calcium influx [3]: completely reversed

ApoE (136-149): 14 amino acid peptide, three amino-terminal residues removed from ApoE (133-149) (Ac-RLASHLRKLRKRLL-NH2; listed as Homo sapiens)
protection against NMDA-induced cell damage, truncated peptides [4]: modest protection against NMDA toxicity

141-155 dimer: dimeric peptide of ApoE residues 141-155 (Dyer et al.)
LDL receptor binding (LDL receptor): ~1 % of LDL activity

pertussis toxin [reference compound]
effect of preincubation on apoE-induced [Ca2+]i increase [2]: markedly attenuated the ApoE-dependent Ca^2+ response
effect of pretreatment on apoE-induced IP3 increase [5]: completely abolished this increase in IP3

ApoE (139-149): 11-residue peptide, six amino-terminal residues removed from ApoE (133-149) (Ac-SHLRKLRKRLL-NH2; listed as Homo sapiens)
protection against NMDA-induced cell damage, truncated peptides [4]: no detectable bioactivity
